Experimental data: US8609086B2, “Preparation created from an in vitro culture of dedifferentiated, non-elicited cells of the Argania tree, use thereof for treating skin ageing, inflammation and scarring, and production thereof” (Pierre Fabre Dermo-Cosmetique, priority 2010, dated 2013)

Experiment: Anti-oxidizing activity by chemiluminescence (ACL kit), trolox equivalent
Assay type: biochemical
Conditions: anti-oxidizing power in trolox equivalent, trapping of superoxide anions
Description: This method generates free radicals (superoxide radical O2^o−) by a photochemical signal. The intensity of oxidation is 1000 times greater than that obtained under normal conditions. Detection is done by chemiluminescence and is used to evaluate lipo or hydrosoluble anti-oxidizing extracts or molecules. The results are expressed as an equivalent quantity of vitamin C or Trolox (6-Hydroxy-2,5,7,8-tetramethylchroman-2-carboxylic acid). The sensitivity is of the order of one nanomole.
The analysis of the results depends on two criteria, namely the shape of the curve (integration) and the numerical value given by the software in nanomoles. (Igor Popov and Gudrun Lewin. Methods in enzymology vol 300. 437-456; Maibach I Howard and coll. Journal of Cosmetic Dermatology Vol 7(2) 96-100 (2008)).
The results will be expressed in μg of sample necessary to obtain an activity equivalent to the activity detected for 1 μg of standard (=trolox). (ACL Kit).
The anti-oxidizing activity studied in this test represents the ability to specifically trap superoxide anions by chemiluminescence.

Row | Compound | ACL μg of sample for 1 μg of Trolox
1 | COC1=C(OC)C(=O)C(C/C=C(\C)CC/C=C(\C)CC/C=C(\C)CC/C=C(\C)CC/C=C(\C)CC/C=C(\C)CC/C=C(\C)CC/C=C(\C)CC/C=C(\C)CCC=C(C)C)=C(C)C1=O [Coenzyme 10] | 272 μg of sample for 1 μg of Trolox
2 | Cc1c(C)c2c(c(C)c1O)CCC(C)(C(=O)O)O2 (centres unmarked) [Trolox, 6-Hydroxy-2,5,7,8-tetramethylchroman-2-carboxylic acid] | 1 μg of sample for 1 μg of Trolox
